Experimental data taken from patent US9598359B2, “Sulfonates from natural oil metathesis” (priority 2010, dated 2017).
Read-outs that look alike come from different tables or passages of the source.

Legend:
[1] = type: physicochemical; parameters: key to Spont. (spontaneity or bloom): E (excellent); G (good); F (fair); P (poor); details: for % Separation, 1 h / % Separation, 24 h: C = cream; for % Separation, 24 h, oil: O = oil separated, Tr = trace of oil

Row | Compound | Spont. (spontaneity or bloom) ([1]; 34 ppm water) | % Separation, 1 h ([1]; 34 ppm water) | % Separation, 24 h ([1]; 34 ppm water) | Spont. (spontaneity or bloom) ([1]; 1000 ppm water) | % Separation, 1 h ([1]; 1000 ppm water) | % Separation, 24 h ([1]; 1000 ppm water) | Emulsion stability, mL separation, 1 h (Adjuvant (anionic/nonionic) test sample) | Emulsion stability, mL separation, 24 h (Adjuvant (anionic/nonionic) test sample, Tr = trace) | Emulsion stability, mL separation, 1 h (Anionic test sample) | Emulsion stability, mL separation, 24 h (Anionic test sample) | sol (solubility) (Anionic test sample, 342 ppm water, 30° C.) | Emulsion stability, mL separation, 1 h (Nonionic test sample) | Emulsion stability, mL separation, 24 h (Nonionic test sample) | % Separation, 24 h, oil ([1]; 34 ppm water) | % Separation, 24 h, oil ([1]; 1000 ppm water)
1 | C=CCCCCCCCC(=O)OC(CCCCCCCC(=O)[O-])CS(=O)(=O)[O-].[Na+].[Na+] (centres unmarked) [C10-32, C10 UFA SLA] | F | 3% | 3.9% | F | 2.5% | 3% | 0 mL | Tr | 0 mL | 0 mL | S | 1 mL | 1 mL | – | –
2 | CCCCCCCCCC(=O)OC(CCCCCCCC(=O)OC)CS(=O)(=O)[O-].[Na+] (centres unmarked) [C10-35, C10 UME C10 FA (60:40) SLA] | F | 3% | 3% | F | 3.4% | 4% | – | – | – | – | – | – | – | – | –
3 | CCCCCCCCCCCC(=O)OC(CCCCCCCC(=O)[O-])C(CC)S(=O)(=O)[O-].[Na+].[Na+] (centres unmarked) [C12-35, C12 UFA C12 FA (80:20) SLA] | F | 3.8% | 5 C, % | F | 3% | 4 C, % | – | – | – | – | – | – | – | Tr | Tr
4 | CCCCCCCCCCCCCCCCCC(=O)OC(CCCCCCCC(=O)[O-])C(CC)S(=O)(=O)[O-].[Na+].[Na+] (centres unmarked) [C12-36, C12 UFA C18 FA (80:20) SLA] | F | 3.8% | 4.5 C, % | F | 3.6% | 4 C, % | – | – | – | – | – | – | – | Tr | Tr
5 | CCCCCCCCCCCC(=O)OC(CCCCCCCC(=O)OC)C(CC)S(=O)(=O)[O-].[Na+] (centres unmarked) [C12-37, C12 UME C12 FA (60:40) SLA] | F | 3% | 4 C, % | F | 3% | 3 C, % | – | – | – | – | – | – | – | <1 O % | 1 O %
6 | CCCCCCCCCC(=O)OC(CCCCCCCC(=O)OC)C(CCCCCCCC(=O)OC)S(=O)(=O)[O-].[Na+] (centres unmarked) [C18-63, DBE C10 FA (60:40) SLA] | F | 3.1% | 3 C, % | F | 3% | 2.5 C, % | – | – | – | – | – | – | – | 1 O % | 1 O %
7 | CCCCCCCCCC(=O)OC(CCCCCCCC(=O)OC)C(CCCCCCCC(=O)OC)S(=O)(=O)[O-].[Na+] (centres unmarked) [C18-64, DBE C10 FA (75:25) SLA] | F− | 3.2% | 2.5 C, % | F− | 3.7% | 3 C, % | – | – | – | – | – | – | – | 1 O % | 1 O %
